# What was measured:
# caspase 3/7 [1] = test: Caspase 3/7 activity in HL-60 cells with staurosporine; type: cell-based, human; conditions: HL-60, staurosporine
# [2] = Protease sensitivity during expression in Pichia pastoris; conditions: high concentrations of protease inhibitors
# Protocol: In Pichia, GM-CSF-Bcl-XL was expressed intracellularly. The expression was monitored by Western blot.
# The cells were harvested by centrifugation at 5,000 g, and, washed with binding buffer (5 mM imidazole, 20 mM Tris/Cl pH 7.9, 0.5M NaCl) containing 2 protease inhibitor tablets, COMPLETE PROTEASE INHIBITOR COCKTAIL EDTA-free (Roche Diagnostics, Indianapolis, Ind.),/50 ml of buffer. Cells were lysed by adding 100 g of acid washed glass beads (0.5 g of beads/ml of initial culture) with 1 cycle of 5 minutes, frequency 30 Hz, in a mixer mill (Retsch MM200, Haan, Del.). The cellular debris were eliminated by centrifugation at 18,000 g, 5 minutes at 4° C.
# caspase 3/7 [3] = test: Caspase 3/7 activity in monocytes treated with cytotoxic drugs; type: cell-based, human
# HL-60 cells = conditions: for effect on staurosporine cytotoxicity (cell number): chimera at forty-eight hours
# [4] = tested on: Peripheral blood mononuclear cell (PBMC); type: cell-based, human
compound,measurement,setting,value
"Nc1ccn([C@@H]2O[C@H](CO)[C@@H](O)[C@@H]2O)c(=O)n1 [cytarabine, reference compound]",effect on growth of CFU-GM and BFU-E colonies,CD34^+ cells,drastically impaired
"CN[C@@H]1C[C@H]2O[C@@](C)([C@@H]1OC)n1c3ccccc3c3c4c(c5c6ccccc6n2c5c31)C(=O)NC4 [staurosporine, reference compound]",effect on caspase activity / apoptosis,caspase 3/7 [1],induced apoptosis at the highest levels
"GM-CSF-Bcl-XL: chimeric protein: human GM-CSF fused via glycine-serine-threonine linker to full length human Bcl-XL, N-terminal His tag, expressed in E. coli (SEQ ID NO:1)",sensitivity to proteolysis,[2],very sensitive to proteolysis
same,inhibition of caspase 3/7 activity compared with GM-CSF at the same concentration,caspase 3/7 [3],more effective
same,reduction of caspase activity,"caspase 3/7 [3]; monocytes, 2.4 μM, cytotoxic drugs",more than 50%
same,time of maximum effect on proliferation,HL-60 cells; HL-60,48 h
same,proliferation activity higher than in cells treated with the same molar amount of GM-CSF,"HL-60 cells; HL-60, 48 hours",30%
same,duration of protection from staurosporine,"HL-60 cells; HL-60, staurosporine",at least seventy-two hours
same,effect on staurosporine cytotoxicity (cell number),"HL-60 cells; HL-60, staurosporine",approximately the same number of cells as control cultures without staurosporine
same,reduction in cell death,"HL-60 cells; HL-60, with staurosporine, seventy-two hours, versus control",30%
same,cells that had died,"HL-60 cells; HL-60, with staurosporine, seventy-two hours, 50% of control cells had died",20%
same,protection of colonies in the presence of cytarabine,"CD34^+ cells; CD34+ cells, cytarabine",selectively protected the CFU-GM colonies relative to BFU-E
same,colonies under cytokine deprivation,"CD34^+ cells; CD34+ cells, essential medium, no growth factor/cytokines",protected myeloid precursors from cytokine deprivation
same,effect on number of colonies,"CD34^+ cells; CD34+ cells, supplemented medium (SCF, erythropoietin, cytokines)",two-fold
same,protection of PBMC from kinase inhibitors / apoptosis,[4],protected PBMC from both kinase inhibitors in a dose dependent manner
same,increase in cell viability in the presence of AG409,[4]; 0.24 µM,30%
same,increase in cell viability in the presence of staurosporine,[4]; 0.24 µM,50%
"GM-CSF: human granulocyte-macrophage colony-stimulating factor, a cytokine",effect on caspase activity / apoptosis,caspase 3/7 [1],reduced
same,effect on staurosporine cytotoxicity (cell number),"HL-60 cells; HL-60, staurosporine",not able to block the cytotoxic effect of staurosporine
same,prosurvival activity in the presence of AG 490,[4],completely inhibited
same,prosurvival activity in the presence of staurosporine,[4],largely inhibited

# From patent US20100317577A1, “Methods and Compositions for Inhibiting Cell Death or Enhacing Cell Proliferation” (Department of Health and Human Services, priority 2005, published 2010)
